Experimental data reported in patent publication US20260083851A1 (AVILAR THERAPEUTICS, INC., priority 2022, published 2026).

Each compound was assayed against T1, ASGP receptor (biotinylated ASGPR) (Homo sapiens, UniProt P07306). Settings: SPR, Biacore 8K, 25° C.; Table 1A, numeric bound; read-out: ASGPR KD.
T1 construct: biotin (biotinylated)
T1 sequence (P07306 1-291): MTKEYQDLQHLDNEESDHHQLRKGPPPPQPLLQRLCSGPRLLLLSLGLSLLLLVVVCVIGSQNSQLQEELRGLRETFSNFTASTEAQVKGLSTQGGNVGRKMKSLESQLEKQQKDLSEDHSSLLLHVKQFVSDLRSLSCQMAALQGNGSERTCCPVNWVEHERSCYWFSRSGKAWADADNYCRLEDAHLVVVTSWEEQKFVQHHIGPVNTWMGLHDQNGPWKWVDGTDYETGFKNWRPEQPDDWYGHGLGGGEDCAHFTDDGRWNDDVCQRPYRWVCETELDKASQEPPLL
Type: binding

Kd, > 20 µM:
O=C(O)CNC(COCCC(=O)NC[C@H]1OC[C@H](Nc2cncc(C(F)(F)F)n2)[C@@H](O)[C@H]1O)COCCC(=O)NC[C@H]1OC[C@H](Nc2cncc(C(F)(F)F)n2)[C@@H](O)[C@H]1O [A23, (1,15-bis((2R,3R,4R,5S)-3,4-dihydroxy-5-((6-(trifluoromethyl)pyrazin-2-yl)amino)tetrahydro-2H-pyran-2-yl)-3,13-dioxo-6,10-dioxa-2,14-diazapentadecan-8-yl)glycine]

Same assay, conditions: SPR, Biacore 8K, 25° C.; Table 1A; read-out: ASGPR KD

Kd, < 10 µM:
O[C@@H]1[C@H](O)[C@@H](Nc2cncc(C(F)(F)F)n2)CO[C@@H]1CN1CCN(Cc2ccccc2)CC1 [A9, (2R,3R,4R,5S)-2-((4-benzylpiperazin-1-yl)methyl)-5-((6-(trifluoromethyl)pyrazin-2-yl)amino)tetrahydro-2H-pyran-3,4-diol]
O[C@@H]1[C@H](O)[C@@H](Nc2cncc(C(F)(F)F)n2)CO[C@@H]1COc1cnccn1 [A60, (2R,3R,4R,5S)-2-((pyrazin-2-yloxy)methyl)-5-((6-(trifluoromethyl)pyrazin-2-yl)amino)tetrahydro-2H-pyran-3,4-diol]
OC[C@H]1OC[C@H](Nc2ccccc2)[C@@H](O)[C@H]1O [A108, (2R,3R,4R,5S)-2-(hydroxymethyl)-5-(phenylamino)tetrahydro-2H-pyran-3,4-diol]
NCCCCCC(=O)NC(COCCC(=O)NCCOCCOCCOCCOC[C@H]1OC[C@H](Nc2nccc(C(F)(F)F)n2)[C@@H](O)[C@H]1O)COCCC(=O)NCCOCCOCCOCCOC[C@H]1OC[C@H](Nc2nccc(C(F)(F)F)n2)[C@@H](O)[C@H]1O [A45, 3,3′-((2-(6-aminohexanamido)propane-1,3-diyl)bis(oxy))bis(N-(1-((2R,3R,4R,5S)-3,4-dihydroxy-5-((4-(trifluoromethyl)pyrimidin-2-yl)amino)tetrahydro-2H-pyran-2-yl)-2,5,8,11-tetraoxatridecan-13-yl)propanamide)]
O=C(O)COCCOCC(=O)NC[C@H]1OC[C@H](Nc2ccnc(C(F)(F)F)n2)[C@@H](O)[C@H]1O [A116, 2-(2-(2-((((2R,3R,4R,5S)-3,4-dihydroxy-5-((2-(trifluoromethyl)pyrimidin-4-yl)amino)tetrahydro-2H-pyran-2-yl)methyl)amino)-2-oxoethoxy)ethoxy)acetic acid]
NC[C@H]1OC[C@H](Nc2nc(C(F)(F)F)ccc2F)[C@@H](O)[C@H]1O [A99, (2R,3R,4R,5S)-2-(aminomethyl)-5-((3-fluoro-6-(trifluoromethyl)pyridin-2-yl)amino)tetrahydro-2H-pyran-3,4-diol]
O=C(NC[C@H]1OC[C@H](Nc2cncc(C(F)(F)F)n2)[C@@H](O)[C@H]1O)c1cnc2cc[nH]c2n1 [A82, N-(((2R,3R,4R,5S)-3,4-dihydroxy-5-((6-(trifluoromethyl)pyrazin-2-yl)amino)tetrahydro-2H-pyran-2-yl)methyl)-5H-pyrrolo[2,3-b]pyrazine-3-carboxamide]
O=C(NC[C@H]1OC[C@H](Nc2cncc(C(F)(F)F)n2)[C@@H](O)[C@H]1O)c1ncc2cc[nH]c2n1 [A78, N-(((2R,3R,4R,5S)-3,4-dihydroxy-5-((6-(trifluoromethyl)pyrazin-2-yl)amino)tetrahydro-2H-pyran-2-yl)methyl)-7H-pyrrolo[2,3-d]pyrimidine-2-carboxamide]
O=C(NC[C@H]1OC[C@H](Nc2cncc(C(F)(F)F)n2)[C@@H](O)[C@H]1O)c1ccc(-c2ccccc2)cc1 [A10, N-(((2R,3R,4R,5S)-3,4-dihydroxy-5-((6-(trifluoromethyl)pyrazin-2-yl)amino)tetrahydro-2H-pyran-2-yl)methyl)-[1,1′-biphenyl]-4-carboxamide]
O=C(NC[C@H]1OC[C@H](Nc2cncc(C(F)(F)F)n2)[C@@H](O)[C@H]1O)c1ccccn1 [A74, N-(((2R,3R,4R,5S)-3,4-dihydroxy-5-((6-(trifluoromethyl)pyrazin-2-yl)amino)tetrahydro-2H-pyran-2-yl)methyl)picolinamide]

Same assay, conditions: SPR, Biacore 8K, 25° C.; Table 1B, numeric bound; read-out: ASGPR Kd

Kd, > 30 µM:
OC[C@H]1OC[C@H](NC2CCCCC2)[C@@H](O)[C@H]1O [A159, (2R,3R,4R,5S)-5-(cyclohexylamino)-2-(hydroxymethyl)tetrahydro-2H-pyran-3,4-diol]

Same assay, conditions: SPR, Biacore 8K, 25° C.; Table 1B; read-out: ASGPR Kd

Kd, < 10 µM:
OC[C@H]1OC[C@H](Oc2cccc(C(F)(F)F)n2)[C@@H](O)[C@H]1O [A142, (2R,3R,4S,5S)-2-(hydroxymethyl)-5-((6-(trifluoromethyl)pyridin-2-yl)oxy)tetrahydro-2H-pyran-3,4-diol]

Same assay, conditions: SPR, Biacore 8K, 25° C.; Table 1C, numeric bound; read-out: ASGPR KD

Kd, > 30 µM:
OC[C@H]1OC[C@H](Nc2ncc3cn[nH]c3n2)[C@@H](O)[C@H]1O [A183, (2R,3R,4R,5S)-5-((1H-pyrazolo[3,4-d]pyrimidin-6-yl)amino)-2-(hydroxymethyl)tetrahydro-2H-pyran-3,4-diol]

Same assay, conditions: SPR, Biacore 8K, 25° C.; Table 1C; read-out: ASGPR KD

Kd, < 10 µM:
O[C@@H]1[C@H](O)[C@@H](Nc2cccc(C(F)(F)F)n2)CO[C@@H]1COc1ccccc1 [A243]
O=C(O)c1ccc(-c2ccc(OC[C@H]3OC[C@H](Oc4cccc(C(F)(F)F)n4)[C@@H](O)[C@H]3O)cc2)nn1 [A221, 6-(4-(((2R,3R,4S,5S)-3,4-dihydroxy-5-((6-(trifluoromethyl)pyridin-2-yl)oxy)tetrahydro-2H-pyran-2-yl)methoxy)phenyl)pyridazine-3-carboxylic acid]
O[C@@H]1[C@@H](Oc2cccc(C(F)(F)F)n2)CSC[C@@H]1O [A345]
C[C@H]1O[C@H](c2ncncc2F)[C@H](Oc2cccc(C(F)(F)F)n2)[C@@H](O)[C@H]1O [A338]
O=C(O)c1ccc(OC[C@H]2OC[C@H](Nc3cncc(C(F)(F)F)n3)[C@@H](O)[C@H]2O)nn1 [A186, 6-(((2R,3R,4R,5S)-3,4-dihydroxy-5-((6-(trifluoromethyl)pyrazin-2-yl)amino)tetrahydro-2H-pyran-2-yl)methoxy)pyridazine-3-carboxylic acid]
O[C@@H]1[C@H](O)[C@@H](Oc2cccc(C(F)(F)F)n2)CO[C@@H]1c1cn(C2CCNCC2)nn1 [A224, (2R,3R,4S,5S)-2-(1-(piperidin-4-yl)-1H-1,2,3-triazol-4-yl)-5-((6-(trifluoromethyl)pyridin-2-yl)oxy)tetrahydro-2H-pyran-3,4-diol]
C[C@H]1O[C@@H](c2ncncc2F)[C@H](Oc2cccc(C(F)(F)F)n2)[C@@H](O)[C@H]1O [A337]
C[C@H]1O[C@@H](c2ccc3ccccc3n2)[C@H](Oc2cccc(C(F)(F)F)n2)[C@@H](O)[C@H]1O [A344]

Same assay, conditions: SPR, Biacore 8K, 25° C.; Table 1D, numeric bound; read-out: ASGPR KD

Kd, > 30 µM:
O=C(OCc1ccccc1)N1C[C@H](Nc2ccc(C(F)(F)F)cn2)[C@@H](O)[C@@H](O)C1 [A374]

Same assay, conditions: SPR, Biacore 8K, 25° C.; Table 1D; read-out: ASGPR KD

Kd, < 10 µM:
O[C@@H]1[C@@H](Oc2cncc(C(F)(F)F)n2)CNC[C@@H]1O [A389]
CCN1C[C@H](O)[C@H](O)[C@@H](N(C)c2cncc(C(F)(F)F)n2)C1 [A366]
O[C@@H]1[C@H](O)[C@@H](Nc2cncc(C(F)(F)F)n2)CO[C@@H]1COc1ccc(C2CNC2)nn1 [A420]
O=C(OCc1ccccc1)N1C[C@H](Nc2ccnc(C(F)(F)F)n2)[C@@H](O)[C@@H](O)C1 [A375]
C[C@H]1O[C@H](C(=O)Nc2cn[nH]c2)[C@H](Nc2cccc(C(F)(F)F)n2)[C@@H](O)[C@H]1O [A424]
O=C(OCc1ccccc1)N1C[C@H](Nc2nc(Cl)nn3cccc23)[C@@H](O)[C@@H](O)C1 [A380]
